Data reported in ChEMBL document CHEMBL1140535, “Synthesis and evaluation of substituted benzoisoquinolinones as potent inhibitors of Chk1 kinase” (Bioorg Med Chem Lett, 2007).
The source made the active and inactive calls. The rule behind the calls is not given here.

Legend:
NCI-H1299 = assay: Inhibition of camptothecin induced mitotic arrest in human NCI-H1299 cells after 18 hrs; format: functional, cell-based; settings: NCI-H1299, 18 h
[1] = target: T1, Serine/threonine-protein kinase Chk1 (Homo sapiens, UniProt O14757); assay: Inhibition of human Chk1 expressed in baculovirus by time-resolved fluorescence assay
T1 sequence (O14757 whole entry): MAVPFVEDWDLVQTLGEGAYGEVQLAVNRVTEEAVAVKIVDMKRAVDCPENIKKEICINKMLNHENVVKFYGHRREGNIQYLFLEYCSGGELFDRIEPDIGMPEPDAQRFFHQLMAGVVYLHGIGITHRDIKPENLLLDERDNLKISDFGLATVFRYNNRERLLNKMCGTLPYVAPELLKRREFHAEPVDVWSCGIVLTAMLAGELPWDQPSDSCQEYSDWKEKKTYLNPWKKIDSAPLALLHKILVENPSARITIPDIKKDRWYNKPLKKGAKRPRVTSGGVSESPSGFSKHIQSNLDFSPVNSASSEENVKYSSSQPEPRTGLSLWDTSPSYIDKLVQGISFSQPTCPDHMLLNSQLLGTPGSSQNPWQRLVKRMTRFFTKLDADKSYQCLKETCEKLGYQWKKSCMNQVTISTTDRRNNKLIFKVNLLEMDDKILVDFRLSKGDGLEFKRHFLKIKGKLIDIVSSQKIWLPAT

HT-29 [2] = assay: Effect on apoptosis in HT29 cells assessed as increase in camptothecin induced caspase 3 activation after 24 hrs; format: functional, cell-based; settings: Homo sapiens
HT-29 [3] = assay: Effect on apoptosis in HT29 cells assessed as increase in caspase 3 activation after 24 hrs; format: functional, cell-based; settings: Homo sapiens

SMILES | EC50 (NCI-H1299) | IC50 [1] | Activity (HT-29 [2]) | Activity (HT-29 [3])
NCCc1cc2cc[nH]c(=O)c2c2cc(-c3ccc[nH]3)ccc12 | 14 nM | 0.5 nM | – | –
NCCCc1cc2c(-c3cccc(Cl)c3)c[nH]c(=O)c2c2cc(-c3cn[nH]c3)ccc12 | 1050 nM | 11.5 nM | – | –
O=c1[nH]ccc2c3[nH]c(-c4ccccc4)nc3c3ccc(F)cc3c12 | – | 1080 nM | – | –
NCCCc1cc2cc[nH]c(=O)c2c2cc(Cl)ccc12 | 230 nM | 12 nM | – | –
NCCCc1cc2cc[nH]c(=O)c2c2cc(Br)ccc12 | 310 nM | 17 nM | – | –
NCCCc1cc2c(-c3ccccc3F)c[nH]c(=O)c2c2cc(-c3cn[nH]c3)ccc12 | 370 nM | 2.6 nM | – | –
O=c1[nH]ccc2ccc3ccc(Cl)cc3c12 | – | 580 nM | – | –
O=c1[nH]ccc2cc(CO)c3ccc(Br)cc3c12 | – | 440 nM | – | –
CNCCc1cc2cc[nH]c(=O)c2c2cc(Br)ccc12 | – | 44 nM | – | –
NCCCc1cc2c(-c3ccc(Cl)cc3)c[nH]c(=O)c2c2cc(-c3cn[nH]c3)ccc12 | 320 nM | 1.2 nM | – | –
NCCc1cc2cc[nH]c(=O)c2c2cc(Br)ccc12 | – | 3 nM | – | –
NCCCc1cc2cc[nH]c(=O)c2c2ccccc12 | – | 98 nM | – | –
COC(=O)c1cc2cc[nH]c(=O)c2c2cc(Br)ccc12 | – | 300 nM | – | –
NCCCc1cc2cc[nH]c(=O)c2c2cc(C(N)=O)ccc12 | > 10000 nM | 11 nM | – | –
NCCCc1cc2c(-c3ccc(Cl)cc3Cl)c[nH]c(=O)c2c2cc(-c3cn[nH]c3)ccc12 | 270 nM | 1.2 nM | – | –
N#Cc1cc2cc[nH]c(=O)c2c2cc(Br)ccc12 | – | 400 nM | – | –
NCCCc1cc2c(-c3ccccc3Cl)c[nH]c(=O)c2c2cc(-c3cn[nH]c3)ccc12 | 130 nM | 0.8 nM | – | –
O=c1[nH]ccc2cc(CCO)c3ccc(Br)cc3c12 | – | 780 nM | – | –
NCCCc1cc2cc[nH]c(=O)c2c2cc(-c3ccc[nH]3)ccc12 | 44 nM | 2.4 nM | – | –
NCCCc1cc2c(-c3ccc(F)cc3)c[nH]c(=O)c2c2cc(-c3cn[nH]c3)ccc12 | 370 nM | 3.5 nM | – | –
O=c1[nH]ccc2c3[nH]c(-c4cccnc4)nc3c3ccc(F)cc3c12 | – | 110 nM | – | –
NCCCc1cc2c(-c3ccccc3)c[nH]c(=O)c2c2cc(-c3cn[nH]c3)ccc12 | 140 nM | 2 nM | – | –

SMILES | EC50 (NCI-H1299) | IC50 [1] | Activity (HT-29 [2]) | Activity (HT-29 [3])
NCCc1cc2cc[nH]c(=O)c2c2cc(-c3cn[nH]c3)ccc12 | 79 nM | 3 nM | Active | inactive
NCCCc1cc2cc[nH]c(=O)c2c2cc(-c3ccc(CN)cc3)ccc12 | 1080 nM | 6.5 nM | – | –
NCCCc1cc2c(-c3cccc(O)c3)c[nH]c(=O)c2c2cc(-c3cn[nH]c3)ccc12 | 67 nM | 1 nM | – | –
NCCCc1cc2c(-c3ccc(O)cc3)c[nH]c(=O)c2c2cc(-c3cn[nH]c3)ccc12 | 47 nM | 0.3 nM | – | –
COC(=O)c1cc2cc[nH]c(=O)c2c2cc(Cl)ccc12 | – | 360 nM | – | –
NCCCc1cc2c(Br)c[nH]c(=O)c2c2cc(-c3cn[nH]c3)ccc12 | 140 nM | 2.3 nM | – | –
NCCCc1cc2c(-c3cccc(F)c3)c[nH]c(=O)c2c2cc(-c3cn[nH]c3)ccc12 | 300 nM | 3.7 nM | – | –
C=Cc1c[nH]c(=O)c2c1cc(CCCN)c1ccc(-c3cn[nH]c3)cc12 | 210 nM | 3.6 nM | – | –
N#CCCc1cc2cc[nH]c(=O)c2c2cc(Br)ccc12 | – | 420 nM | – | –
NCCCc1cc2cc[nH]c(=O)c2c2cc(-c3cn[nH]c3)ccc12 | 64 nM | 3.5 nM | – | –
N#Cc1cc2cc[nH]c(=O)c2c2cc(Cl)ccc12 | – | 1060 nM | – | –
NCCc1cc2cc[nH]c(=O)c2c2cc(-c3ccn[nH]3)ccc12 | 100 nM | 2.5 nM | – | –
NCCCc1cc2cc[nH]c(=O)c2c2cc(-c3ccn[nH]3)ccc12 | 150 nM | 4.3 nM | – | –
NCCCc1cc2c(-c3ccccc3O)c[nH]c(=O)c2c2cc(-c3cn[nH]c3)ccc12 | 230 nM | 2 nM | – | –
N#CCCc1cc2cc[nH]c(=O)c2c2cc(Cl)ccc12 | – | 510 nM | – | –
NCCc1cc2cc[nH]c(=O)c2c2cc(-c3ccc(CN4CCOCC4)cc3)ccc12 | 130 nM | 0.6 nM | – | –
NCCc1cc2cc[nH]c(=O)c2c2cc(Cl)ccc12 | – | 11 nM | – | –
O=c1[nH]ccc2c3[nH]cnc3c3ccc(F)cc3c12 | – | 610 nM | – | –
CN(C)CCc1cc2cc[nH]c(=O)c2c2cc(Br)ccc12 | – | 130 nM | – | –
N#Cc1ccc2c(CCCN)cc3cc[nH]c(=O)c3c2c1 | 2200 nM | 25 nM | – | –
Cn1cc(-c2ccc3c(CCCN)cc4cc[nH]c(=O)c4c3c2)cn1 | 957 nM | 9.2 nM | – | –
CN(C)CCNC(=O)c1ccc2c(CCCN)cc3cc[nH]c(=O)c3c2c1 | > 10000 nM | 2 nM | – | –
